Converted amounts (≈) assume the structure as drawn. Each block holds one compound with its values, some of them ahead of it. Residues, ends and D or L forms follow the SMILES beside them.
Experiments:
[1] = Binding affinity to c-Src (unknown origin) assessed as inhibition constant by fluorescence based assay; parameters: species or system Homo sapiens
[2] = Binding affinity to c-Abl (unknown origin) assessed as inhibition constant by fluorescence based assay; parameters: species or system Homo sapiens
HeLa = assay: Cytostatic activity against human HeLa cells measured for 72 hrs; assay type: functional; details: read-out: ED50 (the source's name)
Histone deacetylase = assay: Inhibition of HDAC extracted from human HeLa cell nuclear extract by fluorescence assay; assay type: subcellular, Nucleus
EMT6 [3] = assay: Anticancer activity against mouse EMT6 cells assessed as reduction in cell viability at 100 uM incubated for 48 hrs by XTT assay relative to control; assay type: functional
EMT6 [4] = assay: Anticancer activity against mouse EMT6 cells assessed as reduction in cell viability incubated for 48 hrs by XTT assay; assay type: functional, cell-based; details: EMT6, 48 h
[5] = biological target: Human immunodeficiency virus type 1 reverse transcriptase (Human immunodeficiency virus 1, UniProt Q72547); assay: Binding affinity to HIV-1 reverse transcriptase assessed as dissociation constant
[6] = Inhibition of bovine pancrease trypsin-catalyzed proteolysis of chromogenic substrate Boc-QAR-pNA; parameters: species or system Bos taurus
HepG2 = assay: Cytotoxicity against human HepG2 cells assessed as reduction in cell viability incubated for 24 hrs by MTT assay; assay type: functional, cell-based; details: HepG2, 24 h
MDA-MB-231 = assay: Cytotoxicity against human MDA-MB-231 cells assessed as reduction in cell viability incubated for 24 hrs by MTT assay; assay type: functional, cell-based; details: MDA-MB-231, 24 h
A549 = assay: Cytotoxicity against human A549 cells assessed as reduction in cell viability incubated for 24 hrs by MTT assay; assay type: functional, cell-based; details: A549, 24 h
[7] = Binding affinity to Aplysia californica Acetylcholine-binding protein assessed as dissociation constant
[8] = biological target: Acetylcholine-binding protein (Lymnaea stagnalis, UniProt P58154); assay: Binding affinity to Lymnaea stagnalis Acetylcholine-binding protein assessed as dissociation constant
Acetylcholine-binding protein, sequence (P58154 whole entry): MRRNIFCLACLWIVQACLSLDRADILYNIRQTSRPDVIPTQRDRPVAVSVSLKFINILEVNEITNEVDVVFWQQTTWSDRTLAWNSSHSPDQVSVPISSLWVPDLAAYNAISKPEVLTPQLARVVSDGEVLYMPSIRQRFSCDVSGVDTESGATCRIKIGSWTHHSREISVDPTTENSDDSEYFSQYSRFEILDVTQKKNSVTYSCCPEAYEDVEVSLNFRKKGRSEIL

[9] = Binding affinity to Aplysia californica Y55W Acetylcholine-binding protein assessed as dissociation constant
D-amino-acid oxidase = D-amino-acid oxidase (Homo sapiens, UniProt P14920); assay: Binding affinity to human DAO assessed as inhibition constant
D-amino-acid oxidase, sequence (P14920 whole entry): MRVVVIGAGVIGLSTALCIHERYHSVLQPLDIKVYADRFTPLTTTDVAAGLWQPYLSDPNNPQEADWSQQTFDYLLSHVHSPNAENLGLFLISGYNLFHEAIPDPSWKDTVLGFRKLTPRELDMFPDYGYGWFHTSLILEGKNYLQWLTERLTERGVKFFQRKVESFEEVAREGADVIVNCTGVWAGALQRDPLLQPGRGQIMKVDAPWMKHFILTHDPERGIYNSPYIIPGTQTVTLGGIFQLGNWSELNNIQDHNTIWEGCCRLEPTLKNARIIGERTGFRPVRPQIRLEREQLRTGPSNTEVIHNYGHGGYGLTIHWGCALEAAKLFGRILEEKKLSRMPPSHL

SW480 = assay: Anticancer activity against human SW480 cells assessed as reduction in cell viability incubated for 48 hrs by XTT assay; assay type: functional, cell-based; details: SW480, 48 h
Escherichia coli = assay: Antibacterial activity against Escherichia coli assessed as reduction in microbial growth by CLSI based broth microdilution method; assay type: functional
Staphylococcus aureus = assay: Antibacterial activity against Staphylococcus aureus assessed as reduction in microbial growth by CLSI based broth microdilution method; assay type: functional
[10] = biological target: C-X-C chemokine receptor type 4 (Homo sapiens, UniProt P61073); assay: Displacement of 125I-CXCL12 from CXCR4 in human CCRF-CEM cells by competitive binding assay; assay type: cell-based
C-X-C chemokine receptor type 4, sequence (P61073 whole entry): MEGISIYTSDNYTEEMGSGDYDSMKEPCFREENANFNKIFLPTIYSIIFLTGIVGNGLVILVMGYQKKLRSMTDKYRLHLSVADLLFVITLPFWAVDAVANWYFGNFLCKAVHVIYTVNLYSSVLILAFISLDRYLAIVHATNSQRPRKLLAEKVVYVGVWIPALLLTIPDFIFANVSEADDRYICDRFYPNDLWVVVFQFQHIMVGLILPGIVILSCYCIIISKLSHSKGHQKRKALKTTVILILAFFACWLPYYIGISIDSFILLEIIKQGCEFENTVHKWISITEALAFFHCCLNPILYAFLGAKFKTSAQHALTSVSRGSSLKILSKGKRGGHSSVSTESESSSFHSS

[11] = Inhibition of bovine pancrease trypsin by microplate reader analysis; parameters: species or system Bos taurus

Ki [1]: 0.044 µM
Ki [2]: > 125 µM
Structure (SMILES): Nc1ncnc2c1c(-c1ccc(Cl)cc1)nn2-c1cccc(-c2cnnn2Cc2cccc(-c3ccccc3)c2)c1

Structure (SMILES): CC(=O)OC[C@H]1O[C@@H](n2cc(CBr)nn2)[C@H](OC(C)=O)[C@@H](OC(C)=O)[C@@H]1OC(C)=O
EC50 (HeLa): 3.5 µg/mL (≈ 7.11 µM)

Structure (SMILES): CC(=O)OC[C@H]1O[C@@H](n2cc(CI)nn2)[C@H](OC(C)=O)[C@@H](OC(C)=O)[C@@H]1OC(C)=O
EC50 (HeLa): 2 µg/mL (≈ 3.71 µM)

Structure (SMILES): CC(=O)OC[C@H]1O[C@@H](n2nncc2CBr)[C@H](OC(C)=O)[C@@H](OC(C)=O)[C@@H]1OC(C)=O
EC50 (HeLa): 4 µg/mL (≈ 8.13 µM)

IC50 (Histone deacetylase): < 0.1 µM
Structure (SMILES): CCC(=O)CCCCC[C@@H]1NC(=O)[C@@H](C(C)(C)C)n2cc(nn2)[C@H]([C@@H](C)CC)NC(=O)[C@H](Cc2c[nH]c3ccccc23)NC1=O

Structure (SMILES): CC1(C)CC[C@]2(C(=O)OCc3cnnn3-c3ccc([N+](=O)[O-])cc3)CC[C@]3(C)C(=CC[C@@H]4[C@@]5(C)CC[C@H](O)C(C)(C)[C@@H]5CC[C@]43C)[C@@H]2C1
Activity (EMT6 [3]): 74%
IC50 (EMT6 [4]): 74 µM

Kd [5]: 3.3 µM
Structure (SMILES): N[C@H]1C[C@@H](N)[C@H](OCc2cnnn2CC(=O)c2ccc(-c3ccccc3)cc2)C1

Ki [6]: 0.00148 µM
Structure (SMILES): CC[C@H](C)[C@@H]1NC(=O)[C@@H]2CCCN2C(=O)[C@@H]2CCCN2C(=O)[C@H]([C@@H](C)CC)NC(=O)[C@H](CO)NC(=O)[C@H](CCCCN)NC(=O)[C@@H]([C@H](C)O)NC(=O)[C@@H](NC(=O)[C@H](CCCNC(=N)N)NC(=O)CN)CSSC[C@@H](C(=O)N[C@@H](Cc2ccccc2)C(=O)N2CCC[C@H]2C(=O)N[C@@H](CC(=O)O)C(=O)O)NC1=O

Structure (SMILES): O=C(Nc1ccccc1)[C@@H]1C[C@H]2CCc3cnnn3CCOc3cccc(c3)C(=O)N1C2
IC50 (HepG2): 36.3 µM
IC50 (MDA-MB-231): 43.7 µM
IC50 (A549): 46.3 µM

Structure (SMILES): NC(=O)[C@@H]1C[C@H]2CCc3cnnn3CCOc3cccc(c3)C(=O)N1C2
IC50 (HepG2): 34.7 µM
IC50 (MDA-MB-231): 28 µM
IC50 (A549): 41.3 µM

Ki [1]: 1.45 µM
Ki [2]: 7.15 µM
Structure (SMILES): C#Cc1cccc(-n2nc(-c3ccc(Cl)cc3)c3c(N)ncnc32)c1

Kd [5]: 1.9 µM
Structure (SMILES): N[C@H]1C[C@@H](N)[C@H](OCc2cnnn2CC(=O)c2ccc3ccccc3c2)C1

Kd [7]: 0.024 µM
Kd [8]: 0.00096 µM
Kd [9]: 0.017 µM
Structure (SMILES): Cn1c(=O)cc(OCc2cn(C3CC4CC3[N+]4(C)C)nn2)c2ccccc21 (stereo unspecified)

Structure (SMILES): Cc1cccc(-n2nncc2COC(=O)[C@]23CCC(C)(C)C[C@H]2C2=CC[C@@H]4[C@@]5(C)CC[C@H](O)C(C)(C)[C@@H]5CC[C@@]4(C)[C@]2(C)CC3)c1
IC50 (EMT6 [4]): 60 µM

Structure (SMILES): CC(C)CNC(=O)[C@@H]1C[C@H]2CCc3cnnn3CCOc3cccc(c3)C(=O)N1C2
IC50 (HepG2): 37.3 µM
IC50 (MDA-MB-231): 43.2 µM
IC50 (A549): 32.2 µM

Ki [6]: 0.0024 µM
Structure (SMILES): CC[C@H](C)[C@@H]1NC(=O)[C@@H]2CCCN2C(=O)[C@@H]2CCCN2C(=O)[C@H]([C@@H](C)CC)NC(=O)[C@H](CO)NC(=O)[C@H](CCCCN)NC(=O)[C@@H]([C@H](C)O)NC(=O)[C@@H](NC(=O)[C@H](CCCNC(=N)N)NC(=O)CN)CCn2nncc2C[C@@H](C(=O)N[C@@H](Cc2ccccc2)C(=O)N2CCC[C@H]2C(=O)N[C@@H](CC(=O)O)C(=O)O)NC1=O

Ki (D-amino-acid oxidase): 0.4 µM
Structure (SMILES): O=C(Cn1nncc1CO/N=C(/Cc1ccc(O)cc1)C(=O)O)N[C@@H](Cc1ccccc1)C(=O)O

Structure (SMILES): CC1(C)CC[C@]2(C(=O)OCc3cn(-c4ccc(Cl)cc4)nn3)CC[C@]3(C)C(=CC[C@@H]4[C@@]5(C)CC[C@H](O)C(C)(C)[C@@H]5CC[C@]43C)[C@@H]2C1
IC50 (SW480): 76 µM
IC50 (EMT6 [4]): 91.8 µM

Structure (SMILES): CC[C@H]1COC(=O)C[C@@H](O)[C@H](C)[C@@H](O[C@@H]2OC[C@@H](O)[C@H](N(C)C)[C@H]2O)[C@@H](CN(Cc2ccccc2)Cc2cnnn2-c2cnc3ccccc3c2)C[C@@H](C)C(=O)/C=C/C(C)=C/[C@@H]1CO
MIC (Escherichia coli): 464 µg/mL
MIC (Staphylococcus aureus): 4 µg/mL

Kd [7]: 0.331 µM
Kd [8]: 0.00164 µM
Kd [9]: 0.0981 µM
Structure (SMILES): Cn1c(=O)cc(OCc2cnnn2C2C[C@@H]3C[C@H]2[N+]3(C)C)c2ccccc21 (stereo partly specified)

Ki [1]: 0.207 µM
Ki [2]: > 125 µM
Structure (SMILES): Nc1ncnc2c1c(-c1ccc(Cl)cc1)nn2-c1cccc(-c2cnnn2Cc2ccccc2)c1

Ki (D-amino-acid oxidase): 0.001 µM
Structure (SMILES): [N-]=[N+]=NCC(=O)N[C@@H](Cc1ccccc1)C(=O)O

Structure (SMILES): O=C(O)[C@@H]1C[C@H]2CCc3cnnn3CCOc3cccc(c3)C(=O)N1C2
IC50 (HepG2): 44.9 µM
IC50 (MDA-MB-231): 34.3 µM
IC50 (A549): 37.1 µM

IC50 [10]: 0.022 µM
Structure (SMILES): CC(=O)N[C@@H](CCCNC(=N)N)C(=O)N[C@@H](C)C(=O)N[C@H]1CCn2nncc2C[C@@H](C(=O)O)NC(=O)[C@H](Cc2c[nH]cn2)NC(=O)[C@H](Cc2ccc3ccccc3c2)NC(=O)[C@H](CCCNC(=N)N)NC(=O)C1

Ki [6]: 1.91 µM
Structure (SMILES): CC[C@H](C)[C@@H]1NC(=O)[C@H](CO)NC(=O)[C@@H](CCCCN)NC(=O)[C@@H]([C@H](C)O)NC(=O)[C@@H](NC(=O)[C@H](CCCNC(=N)N)NC(=O)CN)CCn2cc(nn2)C[C@@H](C(=O)N[C@@H](Cc2ccccc2)C(=O)N2CCC[C@H]2C(=O)N[C@@H](CC(=O)O)C(=O)O)NC(=O)[C@@H]([C@@H](C)CC)NC(=O)[C@@H]2CCCN2C(=O)[C@@H]2CCCN2C1=O

Kd [5]: 3.7 µM
Structure (SMILES): N[C@H]1C[C@@H](N)[C@H](OCc2cnnn2CC(=O)c2ccc(-c3ccccn3)s2)C1

Structure (SMILES): CC1(C)CC[C@]2(C(=O)OCc3cn(-c4ccc(Br)cc4)nn3)CC[C@]3(C)C(=CC[C@@H]4[C@@]5(C)CC[C@H](O)C(C)(C)[C@@H]5CC[C@]43C)[C@@H]2C1
IC50 (SW480): 29.6 µM
IC50 (EMT6 [4]): 91.8 µM

IC50 [10]: 0.018 µM
Structure (SMILES): CC(=O)N[C@@H](CCCNC(=N)N)C(=O)N[C@@H](C)C(=O)N[C@H]1CCn2cc(nn2)C[C@@H](C(=O)O)NC(=O)[C@H](Cc2c[nH]cn2)NC(=O)[C@H](Cc2ccc3ccccc3c2)NC(=O)[C@H](CCCNC(=N)N)NC(=O)C1

Ki [11]: 0.034 µM
Structure (SMILES): CC[C@H](C)[C@@H]1NC(=O)[C@@H]2CCCN2C(=O)[C@H](C)n2nncc2[C@H]([C@@H](C)CC)NC(=O)[C@H](CO)NC(=O)CNC(=O)[C@H]([C@@H](C)O)NC(=O)[C@@H](NC(=O)[C@H](CCCNC(=N)N)NC(=O)CN)CSSC[C@@H](C(=O)N[C@@H](Cc2ccccc2)C(=O)N2CCC[C@H]2C(=O)N[C@@H](CC(=O)O)C(=O)O)NC1=O (HELM PEPTIDE1{G.R.C.T.G.S.[CC[C@H](C)[C@H](N[*:1])c1cnnn1[C@@H](C)C(=O)[*:2]].P.I.C.F.P.D}$PEPTIDE1,PEPTIDE1,3:R3-10:R3$$$V2.0)

Ki [11]: 0.178 µM
Structure (SMILES): CC[C@H](C)[C@@H]1NC(=O)[C@H](CO)NC(=O)[C@H](CCCCN)NC(=O)[C@H]([C@@H](C)O)NC(=O)[C@@H](NC(=O)[C@H](CCCNC(=N)N)NC(=O)CN)CSSC[C@@H](C(=O)N[C@@H](Cc2ccccc2)C(=O)N2CCC[C@H]2C(=O)N[C@@H](CC(=O)O)C(=O)O)NC(=O)[C@H]([C@@H](C)CC)NC(=O)[C@@H]2CCCN2C(=O)[C@H](C)NC1=O (HELM PEPTIDE1{G.R.C.T.K.S.I.A.P.I.C.F.P.D}$PEPTIDE1,PEPTIDE1,3:R3-11:R3$$$V2.0)

Ki [11]: 0.0032 µM
Structure (SMILES): CC[C@H](C)[C@@H]1NC(=O)[C@H](C)NC(=O)[C@@H]2CCCN2C(=O)[C@H]([C@@H](C)CC)NC(=O)[C@H](CO)NC(=O)[C@H](CCCCN)NC(=O)[C@H]([C@@H](C)O)NC(=O)[C@@H](NC(=O)[C@H](CCCNC(=N)N)NC(=O)CN)CSSC[C@@H](C(=O)N[C@@H](Cc2ccccc2)C(=O)N2CCC[C@H]2C(=O)N[C@@H](CC(=O)O)C(=O)O)NC1=O (HELM PEPTIDE1{G.R.C.T.K.S.I.P.A.I.C.F.P.D}$PEPTIDE1,PEPTIDE1,3:R3-11:R3$$$V2.0)

Ki [11]: 0.255 µM
Structure (SMILES): CC[C@H](C)[C@@H]1NC(=O)[C@H](C)n2nncc2[C@@H]2CCCN2C(=O)[C@H]([C@@H](C)CC)NC(=O)[C@H](CO)NC(=O)[C@H](CCCCN)NC(=O)[C@H]([C@@H](C)O)NC(=O)[C@@H](NC(=O)[C@H](CCCNC(=N)N)NC(=O)CN)CSSC[C@@H](C(=O)N[C@@H](Cc2ccccc2)C(=O)N2CCC[C@H]2C(=O)N[C@@H](CC(=O)O)C(=O)O)NC1=O (HELM PEPTIDE1{G.R.C.T.K.S.I.[C[C@@H](C(=O)[*:2])n1nncc1[C@@H]1CCCN1[*:1]].I.C.F.P.D}$PEPTIDE1,PEPTIDE1,3:R3-10:R3$$$V2.0)

Source: ChEMBL document CHEMBL6182901, “1,5-Disubstituted 1,2,3-triazoles: Molecular scaffolds for medicinal chemistry and biomolecular mimetics” (Eur J Med Chem, 2025)
